One series has as its target T1, COX-1 (Ovis aries, UniProt P05979).
T1 construct: purchased Cayman Chemicals (bought through Sigma-Aldrich) 560131
T1 sequence (P05979 25-600): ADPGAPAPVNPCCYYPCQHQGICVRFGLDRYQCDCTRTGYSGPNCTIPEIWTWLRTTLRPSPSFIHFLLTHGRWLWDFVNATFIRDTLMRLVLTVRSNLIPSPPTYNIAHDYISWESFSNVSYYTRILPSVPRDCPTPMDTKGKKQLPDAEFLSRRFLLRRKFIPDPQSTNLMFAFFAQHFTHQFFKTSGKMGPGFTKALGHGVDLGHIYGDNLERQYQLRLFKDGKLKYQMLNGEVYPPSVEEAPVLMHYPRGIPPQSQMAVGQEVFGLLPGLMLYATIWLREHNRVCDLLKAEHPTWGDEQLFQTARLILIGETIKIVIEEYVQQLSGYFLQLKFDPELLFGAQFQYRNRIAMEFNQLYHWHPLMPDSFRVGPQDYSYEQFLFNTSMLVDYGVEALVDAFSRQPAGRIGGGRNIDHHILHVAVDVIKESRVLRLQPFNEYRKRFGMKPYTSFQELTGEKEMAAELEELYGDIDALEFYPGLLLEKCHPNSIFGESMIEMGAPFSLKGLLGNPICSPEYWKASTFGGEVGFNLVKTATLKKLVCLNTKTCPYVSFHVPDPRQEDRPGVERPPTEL
Nature of the series: COX-1 inhibition, COX (ovine/human) inhibitor screening assay kit. It counts as biochemical. As to the method: (§1) Cell culture reagents were purchased from Euroclone (Milan, Italy). COX (ovine/human) inhibitor screening assay kit (Catalog No. 560131, Cayman Chemicals, Ann Arbor, MI, USA) was purchased from Sigma-Aldrich, Burlington, MA, USA. […] The other reagents were purchased from Sigma-Aldrich, Burlington, MA, USA.
(§2) The COX-1/2 inhibition screening experiments were carried out according to the manufacturer’s instructions. The plate was incubated for 60 min at r.t. under shaking and read with the Tecan Infinite 200 Microplate Reader at λ = 405 nm.
(§3) The graph between percent inhibition of the enzyme and corresponding concentration of the compound provided IC50 values for the probe compounds.

Another series concerns the target T2, COX-2 (Homo sapiens, UniProt P35354).
T2 construct: purchased Cayman Chemicals (bought through Sigma-Aldrich) 560131
T2 sequence (P35354 18-604): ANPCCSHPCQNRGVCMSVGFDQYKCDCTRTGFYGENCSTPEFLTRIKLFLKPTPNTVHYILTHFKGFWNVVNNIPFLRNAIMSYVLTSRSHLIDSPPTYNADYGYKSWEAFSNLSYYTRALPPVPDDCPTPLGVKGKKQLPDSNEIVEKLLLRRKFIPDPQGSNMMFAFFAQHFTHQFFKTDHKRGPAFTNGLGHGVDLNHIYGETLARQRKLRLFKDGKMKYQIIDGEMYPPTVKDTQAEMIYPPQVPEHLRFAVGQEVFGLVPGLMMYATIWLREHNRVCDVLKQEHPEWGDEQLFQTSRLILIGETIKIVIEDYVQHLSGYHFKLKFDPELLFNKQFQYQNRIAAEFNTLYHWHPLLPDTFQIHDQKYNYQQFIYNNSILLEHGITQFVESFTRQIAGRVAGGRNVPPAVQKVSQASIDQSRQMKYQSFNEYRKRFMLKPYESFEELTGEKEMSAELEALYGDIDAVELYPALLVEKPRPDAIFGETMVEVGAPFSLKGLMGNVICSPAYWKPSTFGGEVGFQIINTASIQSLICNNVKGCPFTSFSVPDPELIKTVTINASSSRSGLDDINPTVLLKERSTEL
Put plainly: COX-2 inhibition, COX (ovine/human) inhibitor screening assay kit. The class given is biochemical. As to the method: as §1, §2, §3

Series [1] is described as follows: Fluorescence property measurements (absorption/emission spectra). The class given is physicochemical. Also noted: Stokes Shift: unit not given here. To be noted: ethanol (10^−5 M). As to the method: The λabs and λem, of the target compounds were measured in aqueous solution (phosphate-buffered saline solution, PBS) at the concentration of 10^−5 M (Table 1).
Fluorescence spectra of all target compounds were determined in PBS and EtOH solutions (Table 1) with a Tecan Infinite 200 Microplate Reader. In all experiments, the excitation and the emission bandpass were set at λ = 5 nm. The emission spectra were obtained from λ = 280 to 850 nm, with excitation set at the appropriate excitation wavelength. Absorption spectra were recorded with a Shimadzu UV-1800 spectrophotometer.

Series [2] is described as follows: Solubility in PBS (remark). It counts as physicochemical. The text has this:
Despite of the solvent, the Stokes shift was very low with this fluorophore.

1 compound from publication PMC9230671, “Fluorochrome Selection for Imaging Intraoperative Ovarian Cancer Probes” (Pharmaceuticals, 2022) can be followed below.

Marks after values point to notes of the source that are not given here.

`CCCN1C(=O)c2cccc3c(Nc4ccc(NC(=O)Cc5onc(-c6ccc(OC)cc6)c5-c5ccc(OC)cc5)cc4)ccc(c23)C1=O` [Compound 17b, 2-(3,4-Bis(4-methoxyphenyl)isoxazol-5-yl)-N-(4-((1,3-dioxo-2-propyl-2,3-dihydro-1H-benzo[de]isoquinolin-6-yl)amino)phenyl)acetamide] showed a melting point of 112 to 115 °C. Further, on COX-1, the IC50 was found to be 150 nM and the “SI (selectivity index)” value was over 333. In addition, the inhibition at 50 µM on COX-1 (at 50 µM compound final concentration, read-out: COX-1 % inhib.) amounted to 49%. The IC50 at COX-2 is over 50000 nM. Moreover, at COX-2 (up to 50 µM final concentration), the “COX-2 inhibitory activity (in words)” value is “almost inactive”. In series [1], the “Stokes Shift” value turned out to be 92, the λabs is given as 450 ^b nm and the λem was 542 ^b nm. In series [2], the “solubility in PBS” value is reported as “low solubility”.
